Test results from US20250002455A1, “NEW N-PHENYLPYRROLAMIDE INHIBITORS OF DNA GYRASE AND TOPOISOMERASE IV WITH ANTIBACTERIAL ACTIVITY” (priority 2020, published 2025).
pIC50: −log10 of the molar value. ≈ marks a conversion by molar mass, not a printed value. Like-named read-outs stand apart in the source and are kept apart here.

What was measured:
E. coli DNA gyrase = target: T1, E. coli DNA gyrase (Escherichia coli, UniProt P0AES6); experiment: biochemical; conditions: E. coli DNA gyrase; read-out: IC50
T1 construct: purchased Inspiralis
Description: Inhibitory activities for compounds of the present invention were determined on E. coli and S. aureus DNA gyrase and topoisomerase IV in an assay from Inspiralis on streptavidin-coated 96-well microtiter plates from Thermo scientific Pierce. […] After washing off the unbound oligonucleotide, the enzyme test was performed. […] Reaction solutions were incubated at 37° C. for 30 min. After that, the TF buffer (50 mM NaOAc with pH 5.0, 50 mM NaCl and 50 mM MgCl2) was added to terminate the enzymatic reaction. After additional incubation for 30 min at rt, during which biotin-oligonucleotide-plasmid triplex was formed, the unbound plasmid was washed off using TF buffer and SybrGOLD in T10 buffer (10 mM Tris HCl with pH 8.0 and 1 mM EDTA) was added. […] GraphPad Prism 6.0 software was used to calculate the IC50 values. The result is given as the average value of three independent measurements. […] Chemoth.

S. aureus ATCC 29213 = experiment: Microbroth dilution MIC (CLSI); format: cell-based; conditions: Staphylococcus aureus, ATCC29213; S. aureus ATCC 29213; read-out: MIC
Description: (§1) The chemical entities described in the present invention were assessed for their antimicrobial activity using a microbroth dilution assay as recommended by the CLSI (Methods for Dilution Antimicrobial Susceptibility Tests for Bacteria That Grow Aerobically, and Methods for Antimicrobial Susceptibility Testing of Anaerobic Bacteria, Clinical and Laboratory Standards Institute, Document M07-A8, and M11-A8, Wayne, PA 19087, USA, 2012.). Compounds were dissolved by using 100% DMSO. Serial two-fold dilutions of each compound were made by using 100% DMSO as the diluent.
(§2) A library of Gram-negative and Gram-positive microbes and their drug- and multidrug-resistant variants were employed as test organisms. The MIC (minimum inhibitory concentration) was determined as the lowest concentration of an individual drug that lead to no visible growth.

[1] = tested on: S. aureus ATCC 43300 (MRSA); experiment: Microbroth dilution MIC (CLSI); format: cell-based; conditions: Staphylococcus aureus
Description: as §1, §2

K. pneumoniae ATCC 10031 = experiment: Microbroth dilution MIC (CLSI); format: cell-based; conditions: Klebsiella pneumoniae, ATCC10031; K. pneumoniae ATCC 10031; read-out: MIC
Description: as §1, §2

A. baumannii ATCC 17978 = experiment: Microbroth dilution MIC (CLSI); format: cell-based; conditions: Acinetobacter baumannii, ATCC17978; A. baumannii ATCC 17978; read-out: MIC
Description: as §1, §2

[2] = tested on: E. spp. cloacae ATCC 13047; experiment: Microbroth dilution MIC (CLSI); format: cell-based; conditions: Enterobacter cloacae, ATCC13047; E. spp. cloacae ATCC 13047; read-out: MIC
Description: as §1, §2

E. faecalis ATCC 29212 = experiment: Microbroth dilution MIC (CLSI); format: cell-based; conditions: Enterococcus faecalis, ATCC29212; E. faecalis ATCC 29212; read-out: MIC
Description: as §1, §2

[3] = tested on: S. aureus ATCC 700699 (VISA); experiment: Microbroth dilution MIC (CLSI); format: cell-based; conditions: Staphylococcus aureus
Description: as §1, §2

E. coli ATCC 25922 = experiment: Microbroth dilution MIC (CLSI); format: cell-based; conditions: Escherichia coli, ATCC25922; E. coli ATCC 25922; read-out: MIC
Description: as §1, §2

P. aeruginosa ATCC 27853 = experiment: Microbroth dilution MIC (CLSI); format: cell-based; conditions: Pseudomonas aeruginosa, ATCC27853; P. aeruginosa ATCC 27853; read-out: MIC
Description: as §1, §2

E. faecium ATCC 700221 = experiment: Microbroth dilution MIC (CLSI); format: cell-based; conditions: Enterococcus faecium, ATCC700221
Description: as §1, §2

[4] = S. aureus ATCC 43300 (MRSA), read-out: MIC
[5] = S. aureus ATCC 700699 (VISA), read-out: MIC
[6] = E. faecium ATCC 700221, read-out: MIC

SMILES | pIC50 (E. coli DNA gyrase) | MIC (S. aureus ATCC 29213) [µg/mL] | MIC [1] [µg/mL] | MIC (K. pneumoniae ATCC 10031) [µg/mL] | MIC (A. baumannii ATCC 17978) [µg/mL] | MIC [2] [µg/mL] | MIC (E. faecalis ATCC 29212) [µg/mL] | MIC [3] [µg/mL] | MIC (E. coli ATCC 25922) [µg/mL] | MIC (P. aeruginosa ATCC 27853) [µg/mL] | MIC (E. faecium ATCC 700221) [µg/mL] | MIC [1, 4] [µg/mL] | MIC [3, 5] [µg/mL] | MIC (E. faecium ATCC 700221; [6]) [µg/mL]
Cc1[nH]c(C(=O)Nc2ccc(-c3noc(=O)[nH]3)cc2N2CCNCC2)c(Cl)c1Cl [Example 5, 4-(2-(3,4-Dichloro-5-methyl-1H-pyrrole-2-carboxamido)-5-(5-oxo-4,5-dihydro-1,2,4-oxadiazol-3-yl)phenyl)piperazin-1-ium chloride] | 8.22 | > 64 | > 64 | > 64 | > 64 | > 64 | > 64 | > 64 | > 64 | > 64 | > 64 |  |  | 
Cc1[nH]c(C(=O)Nc2ccc(-c3noc(=O)[nH]3)cc2N2CCCC2)c(Cl)c1Cl [Example 6, 3,4-Dichloro-5-methyl-N-(4-(5-oxo-4,5-dihydro-1,2,4-oxadiazol-3-yl)-2-(pyrrolidin-1-yl)phenyl)-1H-pyrrole-2-carboxamide] | 7.90 | > 64 |  | > 64 | > 64 | > 64 | < 0.0312 |  | > 64 | > 64 |  | 0.5 (≈ 1.18 µM) | < 0.0313 | 0.0625 (≈ 0.148 µM)
Cc1[nH]c(C(=O)Nc2ccc(-c3noc(=O)[nH]3)cc2N2CCN(c3ccccc3)CC2)c(Cl)c1Cl [Example 7, 3,4-Dichloro-5-methyl-N-(4-(5-oxo-4,5-dihydro-1,2,4-oxadiazol-3-yl)-2-(4-phenylpiperazin-1-yl)phenyl)-1H-pyrrole-2-carboxamide] | 6.96 | 4 (≈ 7.79 µM) |  | > 64 | > 64 | > 64 | 0.125 (≈ 0.243 µM) |  | > 64 | > 64 |  | 0.0625 (≈ 0.122 µM) | 2 (≈ 3.9 µM) | 4 (≈ 7.79 µM)
Cc1[nH]c(C(=O)Nc2ccc(C(=O)O)cc2NC2CCNCC2)c(Cl)c1Cl.Cl [Example 15, 4-((5-Carboxy-2-(3,4-dichloro-5-methyl-1H-pyrrole-2-carboxamido)phenyl)amino)piperidin-1-ium chloride] | 6.27 | > 64 |  | > 64 | > 64 | > 64 | > 64 |  | > 64 | > 64 |  | > 64 | > 64 | > 64
Cc1[nH]c(C(=O)Nc2ccc(C(=O)O)cc2N2CCN(c3ccccc3)CC2)c(Cl)c1Cl [Example 16, 4-(3,4-Dichloro-5-methyl-1H-pyrrole-2-carboxamido)-3-(4-phenylpiperazin-1-yl)benzoic acid] | 6.70 | > 64 |  | > 64 | > 64 | > 64 | > 64 |  | > 64 | > 64 |  | > 64 | > 64 | > 64
Cc1[nH]c(C(=O)Nc2ccc(-c3n[nH]c(=O)o3)cc2NC2CCNCC2)c(Cl)c1Cl.Cl [Example 19, 4-((2-(3,4-Dichloro-5-methyl-1H-pyrrole-2-carboxamido)-5-(5-oxo-4,5-dihydro-1,3,4-oxadiazol-2-yl)phenyl)amino)piperidin-1-ium chloride] | 8.36 | > 64 |  | 2 | > 64 | > 64 | > 64 |  | > 64 | > 64 |  | > 64 | > 64 | > 64
